Measurements as given in patent publication US11147272B2, “Pyridone compounds and agricultural and horticultural fungicides comprising the same as active ingredients” (MITSUI CHEMICALS AGRO, INC., priority 2017, dated 2021).

Legend:
[1] = tested on: Botrytis cinerea; assay: Test Example B: Gray mold on tomato; conditions: Gray mold on tomato; class of control value
Description: Seeds of a test plant (tomato variety: Oogata Fukuju) were planted and cultivated until three to five first leaves (true leaves) appeared. In the test, the inventive compounds were dissolved into dimethyl sulfoxide-methanol mixture solution (volume ratio: 9/1), and the resultant solutions were diluted with well water to a concentration of 250 ppm to obtain the drug solutions. The drug solutions were sprayed to the test plant (2.5 ml/pot). After the drug solutions dried, a conidial suspension (4-8×10^5 conidia/ml) of Botrytis cinerea was inoculated to the plant by spraying. After the inoculation, the plant was kept in a mist chamber at room temperature of 20 to 23° C. for about 48 hours to promote the onset of disease. The degrees of disease development were investigated 2 to 3 days after the inoculation, and the effectiveness of the drug solutions was evaluated.
In Test Examples described above, the degrees of disease development were evaluated in increments of 0.05 from 0 (as no incidence of disease) to 3 (as the degree of disease development in an untreated plant group). Further, control values were calculated using the following equation based on the degree of disease development.
n=Degree of disease development in each treated group
In the table, H: more than 50% control value, L: 50% or less control value, and nt: not tested.

[2] = tested on: Colletotrichum orbiculare; assay: Test Example H: Anthracnose on cucumber; conditions: Anthracnose on cucumber (Sagami Hanjiro); 250 ppm spray, 2.5 ml/pot; assessed 6 to 10 days after inoculation
[3] = tested on: Phytophthora infestans; assay: whole plant or invertebrate; type: in vivo; conditions: Late blight on tomato; class of control value
[4] = tested on: Plasmopara viticola; assay: Test Example G: Downy mildew on vine; conditions: Downy mildew on vine (Neomuscat); 250 ppm spray, 2.5 ml/pot; assessed 7 to 10 days after inoculation
[5] = tested on: Puccinia recondita; assay: Test Example E: Brown rust on wheat; type: in vivo; conditions: Brown rust on wheat; class of control value
[6] = tested on: Alternaia brassicicola; assay: Test Example C: Alternaria sooty spot on cabbage; type: in vivo; conditions: Alternaria sooty spot on cabbage; class of control value
Description: Seeds of a test plant (cabbage variety: Shikidori) were planted and cultivated until the cotyledons extended.
<Control Value> Control value=100{1−(n/3)}

[7] = tested on: Blumeria graminis f. sp. hordei; assay: Test Example D: Powdery mildew on barley; conditions: Powdery mildew on barley; class of control value
[8] = tested on: Magnaporthe grisea; assay: whole plant or invertebrate; type: in vivo; conditions: Blast on rice; class of control value

| SMILES | Test B control value class [1] | Test H control value class [2] | Test F control value class [3] | Test G control value class [4] | Test E control value class [5] | Test C control value class [6] | Test D control value class [7] | Test A control value class [8] |
| --- | --- | --- | --- | --- | --- | --- | --- | --- |
| CCn1c(-c2c(F)cc(F)cc2F)c(C(O)C(C)C)cc(Cl)c1=O (stereo not shown) [compound 64] | H (more than 50% control value) | H (more than 50% control value) | L (50% or less control value) | H (more than 50% control value) | H (more than 50% control value) | H (more than 50% control value) | H (more than 50% control value) | H (more than 50% control value) |
| CCn1c(-c2c(F)cc(F)cc2F)c(C(OC)C(C)C)cc(Cl)c1=O (stereo not shown) [compound 65] | H (more than 50% control value) | H (more than 50% control value) | L (50% or less control value) | L (50% or less control value) | H (more than 50% control value) | H (more than 50% control value) | H (more than 50% control value) | H (more than 50% control value) |
| CCn1c(-c2c(F)cc(F)cc2F)c(C(=O)C(C)C)cc(Cl)c1=O [compound 66] | H (more than 50% control value) | H (more than 50% control value) | L (50% or less control value) | L (50% or less control value) | H (more than 50% control value) | H (more than 50% control value) | H (more than 50% control value) | H (more than 50% control value) |
| CCn1c(-c2c(F)cc(F)cc2F)c(C(C)(C)C)ccc1=O [compound 67] | H (more than 50% control value) | H (more than 50% control value) | L (50% or less control value) | L (50% or less control value) | H (more than 50% control value) | H (more than 50% control value) | H (more than 50% control value) | L (50% or less control value) |
| Cn1c(-c2c(F)cc(F)cc2F)c(C(C)(C)C)ccc1=O [compound 68] | L (50% or less control value) | H (more than 50% control value) | L (50% or less control value) | L (50% or less control value) | H (more than 50% control value) | H (more than 50% control value) | L (50% or less control value) | L (50% or less control value) |
| CCn1c(-c2c(F)cc(F)cc2F)c(C(C)(C)C)cc(Cl)c1=O [compound 69] | H (more than 50% control value) | L (50% or less control value) | L (50% or less control value) | L (50% or less control value) | H (more than 50% control value) | H (more than 50% control value) | L (50% or less control value) | H (more than 50% control value) |
| CCn1c(-c2c(F)cc(F)cc2F)c(C(C)(C)C)cc(Br)c1=O [compound 70] | H (more than 50% control value) | H (more than 50% control value) | L (50% or less control value) | L (50% or less control value) | H (more than 50% control value) | H (more than 50% control value) | H (more than 50% control value) | H (more than 50% control value) |
| CCn1c(-c2c(F)cc(OC)cc2F)c(C(OC)C(C)C)cc(Cl)c1=O (stereo not shown) [compound 71] | H (more than 50% control value) | H (more than 50% control value) | L (50% or less control value) | L (50% or less control value) | H (more than 50% control value) | H (more than 50% control value) | H (more than 50% control value) | H (more than 50% control value) |
| CCOc1cc(F)c(-c2c(C(OC)C(C)C)cc(Cl)c(=O)n2CC)c(F)c1 (stereo not shown) [compound 72] | H (more than 50% control value) | H (more than 50% control value) | L (50% or less control value) | H (more than 50% control value) | H (more than 50% control value) | H (more than 50% control value) | H (more than 50% control value) | H (more than 50% control value) |
| CCn1c(-c2c(F)cc(OC)cc2F)c(C(=O)C(C)C)cc(Cl)c1=O [compound 73] | H (more than 50% control value) | H (more than 50% control value) | L (50% or less control value) | H (more than 50% control value) | H (more than 50% control value) | H (more than 50% control value) | H (more than 50% control value) | H (more than 50% control value) |
| CCn1c(-c2c(F)cc(OC)cc2F)c(C(C)(C)C)cc(Cl)c1=O [compound 74] | H (more than 50% control value) | H (more than 50% control value) | L (50% or less control value) | H (more than 50% control value) | H (more than 50% control value) | H (more than 50% control value) | L (50% or less control value) | H (more than 50% control value) |
| CCOc1cc(F)c(-c2c(C(C)(C)C)cc(Cl)c(=O)n2CC)c(F)c1 [compound 75] | H (more than 50% control value) | H (more than 50% control value) | L (50% or less control value) | L (50% or less control value) | H (more than 50% control value) | H (more than 50% control value) | L (50% or less control value) | L (50% or less control value) |
| CCn1c(-c2c(F)cc(OC)cc2F)c(C(C)(C)C)cc(Br)c1=O [compound 76] | H (more than 50% control value) | H (more than 50% control value) | L (50% or less control value) | L (50% or less control value) | H (more than 50% control value) | H (more than 50% control value) | L (50% or less control value) | H (more than 50% control value) |
| Cn1c(-c2c(F)cc(F)cc2F)c(C(C)(C)C)cc(Cl)c1=O [compound 77] | H (more than 50% control value) | L (50% or less control value) | L (50% or less control value) | L (50% or less control value) | H (more than 50% control value) | H (more than 50% control value) | H (more than 50% control value) | L (50% or less control value) |
